According to ChEMBL document CHEMBL1201862, “PubChem BioAssay data set” (2004):
The source made the active and inactive calls.

Assays:
[1] = A cytotoxicity screen of small molecule inhibitors of the PhoP region in Salmonella typhi identified in the primary screen. [Related pubchem assays: 1850, 1864, 1985 ]; assay type: functional
[2] = target: T1, Replicative DNA helicase DnaB (Mycobacterium tuberculosis, UniProt P9WMR3); experiment: DnaB intein splicing inhibitors, dose response, biochemical, cell-free fluorescence (AID 449749); assay type: functional
T1 sequence (P9WMR3 whole entry): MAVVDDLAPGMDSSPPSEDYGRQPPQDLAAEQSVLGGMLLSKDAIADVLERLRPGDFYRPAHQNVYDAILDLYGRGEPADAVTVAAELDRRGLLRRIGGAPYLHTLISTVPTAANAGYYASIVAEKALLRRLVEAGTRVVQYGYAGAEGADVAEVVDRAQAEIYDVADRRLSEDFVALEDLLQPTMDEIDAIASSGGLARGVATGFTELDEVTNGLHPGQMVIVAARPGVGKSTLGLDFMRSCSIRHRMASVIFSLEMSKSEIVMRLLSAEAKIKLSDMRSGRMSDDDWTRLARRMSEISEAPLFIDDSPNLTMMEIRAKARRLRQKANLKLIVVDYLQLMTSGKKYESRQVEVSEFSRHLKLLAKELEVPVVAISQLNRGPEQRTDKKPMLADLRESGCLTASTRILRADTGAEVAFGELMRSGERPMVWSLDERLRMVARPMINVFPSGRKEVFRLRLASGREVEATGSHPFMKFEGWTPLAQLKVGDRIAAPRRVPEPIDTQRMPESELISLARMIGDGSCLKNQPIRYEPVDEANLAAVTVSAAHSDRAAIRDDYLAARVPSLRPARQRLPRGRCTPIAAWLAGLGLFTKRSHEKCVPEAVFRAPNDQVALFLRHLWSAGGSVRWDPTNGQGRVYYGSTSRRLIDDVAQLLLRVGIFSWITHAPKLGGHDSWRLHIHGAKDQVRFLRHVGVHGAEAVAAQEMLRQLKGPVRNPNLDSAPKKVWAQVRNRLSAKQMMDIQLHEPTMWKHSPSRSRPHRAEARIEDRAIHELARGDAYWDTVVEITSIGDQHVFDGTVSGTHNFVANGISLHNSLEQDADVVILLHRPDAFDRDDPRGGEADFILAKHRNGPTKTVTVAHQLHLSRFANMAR

[3] = target: T2, Protein RecA (Mycobacterium tuberculosis, UniProt P9WHJ3); experiment: Fluorescence Cell-Free Homogeneous Dose Retest to Identify Inhibitors of RecA-Intein Splicing Activity. [Related pubchem assays (depositor defined):AID2097, AID2223, AID489010, AID492950]; assay type: functional
T2 sequence (P9WHJ3 whole entry): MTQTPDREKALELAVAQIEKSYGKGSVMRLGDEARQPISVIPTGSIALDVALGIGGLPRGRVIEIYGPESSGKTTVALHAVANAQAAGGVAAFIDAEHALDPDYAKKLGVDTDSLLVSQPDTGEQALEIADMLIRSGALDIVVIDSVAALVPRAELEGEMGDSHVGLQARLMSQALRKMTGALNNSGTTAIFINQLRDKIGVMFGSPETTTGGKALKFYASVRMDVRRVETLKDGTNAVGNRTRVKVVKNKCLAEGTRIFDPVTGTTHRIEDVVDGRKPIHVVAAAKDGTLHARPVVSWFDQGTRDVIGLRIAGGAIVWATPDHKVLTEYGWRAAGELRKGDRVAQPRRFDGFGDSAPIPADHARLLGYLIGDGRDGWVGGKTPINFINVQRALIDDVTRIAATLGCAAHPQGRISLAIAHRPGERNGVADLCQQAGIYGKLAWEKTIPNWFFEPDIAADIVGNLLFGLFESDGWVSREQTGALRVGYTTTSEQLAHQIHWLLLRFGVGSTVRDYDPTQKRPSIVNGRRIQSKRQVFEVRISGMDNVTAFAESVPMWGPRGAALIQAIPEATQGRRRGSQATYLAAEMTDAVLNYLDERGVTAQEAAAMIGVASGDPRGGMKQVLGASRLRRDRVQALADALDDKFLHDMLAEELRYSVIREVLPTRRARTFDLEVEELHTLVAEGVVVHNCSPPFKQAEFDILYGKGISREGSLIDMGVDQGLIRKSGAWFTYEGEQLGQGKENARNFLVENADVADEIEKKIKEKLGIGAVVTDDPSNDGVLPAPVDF

[4] = target: Acyl-homoserine lactone acylase PvdQ (Pseudomonas aeruginosa (strain LESB58), UniProt Q9I194); experiment: PvdQ acylase enzyme activity blockers – biochemical, fluorescence, plate reader and imaging, cherry-picks, dose response (AID 493231)
Chain of Acyl-homoserine lactone acylase PvdQ (Q9I194 24-193 limits assumed): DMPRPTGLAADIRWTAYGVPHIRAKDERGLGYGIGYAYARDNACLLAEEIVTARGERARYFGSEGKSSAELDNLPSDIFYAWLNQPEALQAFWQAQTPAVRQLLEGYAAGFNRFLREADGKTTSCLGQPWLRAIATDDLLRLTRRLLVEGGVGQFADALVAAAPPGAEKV
Chain of Acyl-homoserine lactone acylase PvdQ (Q9I194 217-762 limits assumed): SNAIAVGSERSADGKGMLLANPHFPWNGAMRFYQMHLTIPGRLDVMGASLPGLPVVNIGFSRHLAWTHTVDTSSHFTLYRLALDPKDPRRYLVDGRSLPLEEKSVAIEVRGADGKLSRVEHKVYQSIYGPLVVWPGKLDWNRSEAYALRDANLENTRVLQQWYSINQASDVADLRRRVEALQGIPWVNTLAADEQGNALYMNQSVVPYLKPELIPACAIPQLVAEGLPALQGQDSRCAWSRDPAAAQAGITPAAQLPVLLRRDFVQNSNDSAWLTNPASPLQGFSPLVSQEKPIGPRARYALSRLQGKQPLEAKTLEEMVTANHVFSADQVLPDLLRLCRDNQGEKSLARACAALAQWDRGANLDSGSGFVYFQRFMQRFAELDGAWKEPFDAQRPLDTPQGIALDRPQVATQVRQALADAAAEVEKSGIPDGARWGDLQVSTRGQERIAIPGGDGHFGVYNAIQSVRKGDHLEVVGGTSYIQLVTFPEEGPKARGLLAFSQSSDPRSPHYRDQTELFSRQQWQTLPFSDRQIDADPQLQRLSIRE

[5] = M. tuberculosis H37Rv growth inhibitors, H37Rv strain (AID 1626); assay type: functional

Row | SMILES | EC50 [1] | AC50 [2] | EC50 [3] | AC50 [4] | IC50 [5]
1 | COc1ccc(C2C(C#N)=C(N)Oc3[nH]nc(C)c32)cc1CSc1ccccn1 (stereo unspecified) | > 50 µM (active) | 9.71 µM (active) | 6.32 µM (active) |  | 
2 | O=[N+]([O-])c1ccc(N2CCCCC2)cc1 |  |  |  | 6.52 µM (active) | 
3 | CC(C)Cc1c(O)nc(SCC(=O)Nc2ccc3c(c2)CCC3)nc1O | > 50 µM (active) |  |  |  | > 100 µM (active)
